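The compound was tested at five concentrations on cells cultured in 96-well plates, with a 48-hour exposure period. GI50 marks 50% less growth. TGI: concentration producing complete growth inhibition.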
What was measured:
Assay in all cases: DTP human tumour cell line panel, 48 h
MDA-N = system: MDA-N
SN12C renal = system: SN12C renal
786-0 renal = system: 786-0 renal
DU-145 prostate = system: DU-145 prostate
SK-MEL-5 melanoma = system: SK-MEL-5 melanoma
COLO 205 colon = system: COLO 205 colon
TK-10 renal = system: TK-10 renal
UACC-257 melanoma = system: UACC-257 melanoma
SW-620 colon = system: SW-620 colon
KM12 colon = system: KM12 colon
T-47D breast = system: T-47D breast

SMILES	TGI (MDA-N) [µM]	TGI (SN12C renal) [µM]	TGI (786-0 renal) [µM]	TGI (DU-145 prostate) [µM]	TGI (SK-MEL-5 melanoma) [µM]	TGI (COLO 205 colon) [µM]	TGI (TK-10 renal) [µM]	TGI (UACC-257 melanoma) [µM]	TGI (SW-620 colon) [µM]	TGI (KM12 colon) [µM]	TGI (T-47D breast) [µM]	GI50 (SN12C renal) [µM]	GI50 (DU-145 prostate) [µM]	GI50 (SK-MEL-5 melanoma) [µM]	GI50 (TK-10 renal) [µM]	GI50 (UACC-257 melanoma) [µM]	GI50 (SW-620 colon) [µM]	GI50 (KM12 colon) [µM]	GI50 (T-47D breast) [µM]
CC(C)(C)/C(O)=C\c1nc2cc(C(F)(F)F)ccc2[nH]c1=O	> 100	> 100	> 100	> 100	> 100	> 100	> 100	> 100	> 100	> 100	> 100	–	–	–	–	–	–	–	–
CO[C@H]1O[C@@H]2CO[C@@H](c3ccccc3)O[C@H]2C[C@]12CCC/C=C\CO2	26.9	29.7	26.2	> 75	44.1	26.6	59.2	> 75	61.1	> 75	59.6	–	–	–	–	–	–	–	–
CC/C(Cl)=N\OC(=O)Nc1ccc(C#N)cc1	30	30.3	23.5	29.6	25.9	3.3	30.1	29.8	11.7	31.6	30.7	–	–	–	–	–	–	–	–
O=C(CCN1CCCC1)Nc1ccc2c(NCCCc3ccccc3)c3ccccc3nc2c1	–	2.21	–	2.09	2.97	–	3.41	3.64	1.93	2.54	3.91	0.815	0.886	1.61	1.66	1.81	0.54	1.17	1.34
CC(C)[Si]1(C(C)C)OCC2OC(n3ccc(=O)[nH]c3=O)C(O)(CO)C2O[Si](C(C)C)(C(C)C)O1 (stereo unspecified)	–	29.8	29.3	32.4	28.4	31.7	31.3	28.7	33.8	31	30.2	–	–	–	–	–	–	–	–
O=[N+]([O-])C1(C2([N+](=O)[O-])CCCC2)CCCC1	> 100	> 100	> 100	> 100	> 100	> 100	> 100	> 100	> 100	> 100	> 100	–	–	–	–	–	–	–	–
CCN1/C(=C/C(C)=C/c2sc3ccccc3[n+]2CC)Sc2ccccc21	–	–	–	–	1.11	–	1.37	–	–	1.21	–	–	–	–	–	–	–	–	–
CC1OC(=O)c2ccccc2NC1=O (stereo unspecified)	–	> 100	> 100	> 100	> 100	> 100	> 100	> 100	> 100	> 100	–	–	–	–	–	–	–	–	–
N#Cc1c(-c2ccc(Cl)cc2)c(C#N)c(=O)n(NS(=O)(=O)c2ccccc2)c1-c1ccccc1	> 25	> 25	> 25	–	> 25	> 25	> 25	> 25	> 25	–	–	–	–	–	–	–	–	–	–
O/N=C\c1cc(O)c(O)c(/C=N/O)c1	> 100	> 100	–	> 100	> 100	> 100	> 100	> 100	> 100	> 100	> 100	–	–	–	–	–	–	–	–
Cc1cc2c(-c3ccccc3)cc(=O)[nH]c2cc1N	> 100	> 100	> 100	> 100	> 100	> 100	–	> 100	> 100	> 100	> 100	–	–	–	–	–	–	–	–
Nc1ncc(Cc2nc3ccccc3s2)s1	–	> 100	> 100	> 100	> 100	> 100	> 100	> 100	> 100	> 100	> 100	–	–	–	–	–	–	–	–
C=C1C(=O)OC2/C=C(\C)C(O)/C=C\C(C)(O)CC(OC(=O)/C(C)=C/C)C12 (stereo unspecified)	–	53.5	38	–	> 100	28.9	> 100	> 77.1	34.4	> 100	–	–	–	–	–	–	–	–	–
N#Cc1c(C#N)c(SSc2c(C#N)c(C#N)c(N)n2-c2ccccc2)n(-c2ccccc2)c1N	> 56.7	38.3	–	39	31.9	3.82	3.29	> 69.8	3.43	> 63.3	5.29	–	–	–	–	–	–	–	–
COc1cc2c(cc1OC)CCN=C2	> 100	> 100	–	> 100	> 100	> 100	> 100	> 100	> 100	> 100	> 100	–	–	–	–	–	–	–	–
COC(=O)C1=C(O)C(C(=O)OC)[C@]2(O)[C@H](C(=O)OC)[C@H]1C[C@@H](c1ccc(OC)cc1)[C@H]2C(=O)OC (stereo partly specified)	40.7	53.9	47.3	–	55.8	> 100	> 100	> 100	> 100	41.3	> 100	–	–	–	–	–	–	–	–
Cc1n[nH]c(=O)n1N=C(c1ccccc1)c1ccccc1	> 100	> 100	> 100	> 100	> 100	> 100	> 100	> 100	> 100	> 100	–	–	–	–	–	–	–	–	–
CC(=O)Oc1c(OC(C)=O)c(-c2ccc(O)c(O)c2)c(O)c(O)c1-c1ccc(O)cc1	–	> 100	–	–	> 100	> 100	–	> 100	> 100	> 100	–	73.8	–	–	–	–	–	–	–
C/C(=N\Nc1ccc([N+](=O)[O-])cc1)C(=O)N(C)Nc1ccccc1	–	> 100	> 100	–	–	> 100	> 100	> 100	> 100	64.6	–	–	–	–	–	–	–	–	–
Cc1ccc(S(=O)(=O)N/N=C2\C=C[C@]3(CC2)C(=O)N(C)c2ccccc23)cc1	> 100	> 100	> 100	> 100	> 100	> 100	–	> 100	> 100	> 100	> 100	–	–	–	–	–	–	–	–
CSCCCCCCCCCCOc1ccc(C=C2C(=C(C#N)C#N)c3ccccc3C2=C(C#N)C#N)cc1	38.3	–	37.4	28.9	31.9	–	36.1	35.4	37.8	36.8	51.4	–	–	–	–	–	–	–	–

From PubChem BioAssay (NCI)
